Test results taken from patent publication US20220395464A1, “ORALLY ADMINISTERED SOLID DOSAGE FORM DRUG” (ASCENTAWITS PHARMACEUTICALS, LTD., priority 2019, published 2022).
Like-named read-outs stand apart in the source and are kept apart here.

Test: Pharmacokinetics after single intravenous drip infusion, plasma LC-MS/MS
Assay type: in vivo, Philippine macaques
Details: male, plasma, 0.58 mg/kg, plasma; for AUC(0-t) / AUC(0-inf) / clearance / Cmax / half-life / Vd / MRT last / MRT inf / Tmax: cynomolgus monkey, iv, AST-3424 0.58 mg/kg single intravenous infusion; for Tmax: read-out: Tmax, Mean
Procedure: AST-3424 and AST-3424-D6 (i.e. the compound of formula I) were administered to Philippine macaques by intravenous drip infusion, and blood samples were collected at different appointed times. LC-MS/MS was used to determine concentrations of the test substances in plasma of the Philippine macaques after administration, and relevant pharmacokinetic parameters were calculated.
Preparation method: 0.447 ml of AST-3424 (0.2 mg/ml) and 0.481 ml of AST-3424-D6 (0.2 mg/ml) were added into 104.272 ml of the dissolvent, respectively, and mixed for 5 minutes to obtain colorless and clarified solutions with pH 7.0.
The four male Philippine macaques were purchased from Guangxi Xiongsen Primate Development Experiment Co., Ltd. All Philippine macaques were healthy with qualified medical examination and no abnormality. Three of animals were used for the experiment, and one of them was used to prepare blank plasma.
About 0.8 ml of blood samples were collected through femoral vein and anticoagulated with heparin sodium. Appointed times of blood collection were before administration, 0.17, 0.25, 0.5, 0.75, 1, 2, and 4 hours after administration.
The blood samples were placed on ice after collection. Next, plasma samples were separated by centrifugation, and centrifugation conditions were 3500 rpm for 10 minutes at 4° C. Then, the collected plasma samples were stored at −80° C. until analysis. The plasma samples were analyzed by LC-MS/MS by an analysis department of an experimental institution. Besides, Lower limit of quantifications (LLOQ) of AST-3424 and AST-3424-D6 detection were 1 ng/ml. The accuracy of analysis results of an accompanying standard curve and a quality control samples all met the relevant requirements of biological analysis (the accuracy of the quality control samples exceeding 66.7% was between 85˜115%) in a process of the sample detection.
According to average blood concentration data of each group at each appointed time, the pharmacokinetic parameters of the compounds were respectively computed by a pharmacokinetic computing software, a non-compartmental model. In addition, the pharmacokinetic parameters were AUC0-t, AUC0-∞, MRT0-∞, Cmax, Tmax, t1/2, etc. In the case of the concentrations of the samples whose concentration being lower than a lower limit of quantification, the following schemes were used to compute the pharmacokinetic parameters. The samples sampled before reaching Cmax shall be computed as zero value, while the samples sampled after reaching Cmax shall be computed as non-quantifiable (marked as “BLQ”).
After a single intravenous infusion of the compounds AST-3424 and AST-3424-D6 was administered to the Philippine macaques, the whole blood samples of the corresponding animals were collected at the appointed times. Next, the whole blood samples were processed and biologically analyzed to obtain concentrations of the compounds in the plasma at the different appointed times. Results of the assay were listed in Table 14 below, and corresponding means of the plasma-drug concentration-time curves are shown in FIG. 3.
According to the plasma-drug concentration data of each drug group, the pharmacokinetic parameters of each compound group were computed using the non-compartmental model of the pharmacokinetic computing software. The pharmacokinetic

[1] = Philippine macaque, intravenous, AST-3424 intravenous drip infusion 0.58 mg/kg, individual animals 101, 102, 103, read-out: Plasma-drug concentration
[2] = Philippine macaque, intravenous, AST-3424 intravenous drip infusion 0.58 mg/kg, read-out: Plasma-drug concentration, mean

In the case of C[C@H](OP(=O)(N1CC1)N1CC1)c1ccc([N+](=O)[O-])c(Oc2cccc(C(=O)N(C)C)c2)c1 [AST-3424, (S)-1-(3-(3-N,N-Dimethylaminocarbonyl)phenoxy-4-nitrophenyl)-1-ethyl-N,N′-bis(ethylene) phosphoramidate], the AUC(0-t) (Philippine macaque, individual animals 101, 102, 103, read-out: AUC(0−t)) is reported as 404 ng·h/mL, the AUC(0-inf) (Philippine macaque, individual animals 101, 102, 103, read-out: AUC(0−∞)) is reported as 409 ng·h/mL and the clearance (Philippine macaque, individual animals 101, 102, 103, read-out: Cl (converted)) is reported as 23.6 mL/min/kg. It also gave a Cmax (Philippine macaque, individual animals 101, 102, 103, read-out: Cmax) of 696 ng/mL, a half-life (Philippine macaque, individual animals 101, 102, 103, read-out: T1/2 (converted)) of 6.6 min and a Vd (Philippine macaque, individual animals 101, 102, 103, read-out: Vss) of 0.202 L/kg. The Vd (Philippine macaque, individual animals 101, 102, 103, read-out: Vz) was 0.231 L/kg, the AUC(0-t) (Philippine macaque, read-out: AUC(0−t), Mean) was 436 ± 35.6 ng·h/mL and the AUC(0-inf) (Philippine macaque, read-out: AUC(0−∞), Mean) was 438 ± 33.5 ng·h/mL. The clearance (Philippine macaque, read-out: Cl, Mean (converted)) was 22.1 mL/min/kg, the Cmax (Philippine macaque, read-out: Cmax, Mean) was 725 ± 66.6 ng/mL and the MRT last (Philippine macaque, read-out: MRT(0−t), Mean) was 10.2 ± 1.8 min. For the same compound, the MRT inf (Philippine macaque, read-out: MRT(0−∞), Mean) was 10.2 ± 1.8 min, the half-life (Philippine macaque, read-out: T1/2, Mean (converted)) was 9.6 min and the Tmax (Philippine macaque) was 18.6 min. The Vd (Philippine macaque, read-out: Vz, Mean) was 0.306 L/kg, the concentration at 0.17 hr [1] was 638 ng/mL and the concentration at 0.17 hr [2] was 708 ng/mL. For the same compound, the concentration at 0.25 h [1] was 649 ng/mL, the concentration at 0.25 h [2] was 691 ng/mL and the concentration at 0.5 h [1] was 677 ng/mL. For the same compound, the concentration at 0.5 h [2] was 695 ng/mL, the concentration at 0.75 h [1] was 152 ng/mL and the concentration at 0.75 h [2] was 143 ng/mL. For the same compound, the concentration at 1 h [1] was 57.3 ng/mL, the concentration at 1 h [2] was 46.6 ng/mL and the concentration at 2 h (Philippine macaque, intravenous, AST-3424 intravenous drip infusion 0.58 mg/kg, 2 hr, individual animals 101, 102, 103, LLOQ 1 ng/ml, read-out: Plasma-drug concentration) was 1.29 ng/mL. It also gave a concentration at 2 hr (Philippine macaque, intravenous, AST-3424 intravenous drip infusion 0.58 mg/kg, 2 hr, read-out: Plasma-drug concentration, mean) of 1.4 ng/mL, an MRT last (individual animals 101, 102, 103, read-out: MRT(0−t)) of 7.8 min and an MRT inf (individual animals 101, 102, 103, read-out: MRT(0−∞)) of 8.4 min. It also gave a Tmax of 18.4 min and a Vd (read-out: Vss, Mean) of 0.226 L/kg.
